Assay results: US4753955A, “Benzimidazole derivatives” (Tokyo Tanabe Company, Ltd., priority 1986, dated 1988)

Columns and labels:
(H^+ +K^+)-ATPase = target: T1, (H^+ +K^+)-ATPase (Sus scrofa, UniProt P19156); assay: (H^+ +K^+)-ATPase inhibiting activity; type: biochemical; conditions: enzyme from hog fundus ventriculi; incubation with compound 35° to 37° C., 5 to 30 minutes
T1 construct: prepared from the fundus ventriculi of fresh hog stomachs; from tissue; host or cells: fundus ventriculi of fresh hog stomachs, prepared by the method of Saccomani et al. (J. Biol. Chem. 251, 7690, 1976)
T1 sequence (P19156 2-1034 limits assumed): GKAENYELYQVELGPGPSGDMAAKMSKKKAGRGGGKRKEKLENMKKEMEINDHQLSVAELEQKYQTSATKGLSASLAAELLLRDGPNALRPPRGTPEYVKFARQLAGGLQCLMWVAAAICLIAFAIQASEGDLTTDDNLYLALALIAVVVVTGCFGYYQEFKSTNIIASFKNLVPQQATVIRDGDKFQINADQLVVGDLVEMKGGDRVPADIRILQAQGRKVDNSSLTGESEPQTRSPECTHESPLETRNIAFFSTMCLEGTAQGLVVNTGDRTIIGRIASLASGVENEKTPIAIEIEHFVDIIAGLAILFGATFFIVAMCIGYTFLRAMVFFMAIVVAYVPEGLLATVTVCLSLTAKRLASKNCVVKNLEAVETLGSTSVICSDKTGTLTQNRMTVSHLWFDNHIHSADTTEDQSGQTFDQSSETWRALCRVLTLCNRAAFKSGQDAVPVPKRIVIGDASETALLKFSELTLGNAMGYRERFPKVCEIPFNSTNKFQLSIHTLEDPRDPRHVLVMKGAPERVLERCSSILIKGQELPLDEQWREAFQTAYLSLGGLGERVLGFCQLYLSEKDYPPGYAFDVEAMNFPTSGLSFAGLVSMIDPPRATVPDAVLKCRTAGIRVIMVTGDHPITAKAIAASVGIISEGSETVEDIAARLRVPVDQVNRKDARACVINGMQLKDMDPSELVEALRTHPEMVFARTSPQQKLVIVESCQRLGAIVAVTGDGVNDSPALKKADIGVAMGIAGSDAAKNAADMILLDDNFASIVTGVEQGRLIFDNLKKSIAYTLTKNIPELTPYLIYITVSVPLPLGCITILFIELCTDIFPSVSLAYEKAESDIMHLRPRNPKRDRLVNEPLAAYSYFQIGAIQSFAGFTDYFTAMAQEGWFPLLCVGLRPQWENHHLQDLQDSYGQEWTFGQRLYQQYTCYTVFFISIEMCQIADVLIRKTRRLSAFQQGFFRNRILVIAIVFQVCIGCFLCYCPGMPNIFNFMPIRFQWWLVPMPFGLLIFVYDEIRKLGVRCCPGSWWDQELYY
T1 sequence (P18434 whole entry partner): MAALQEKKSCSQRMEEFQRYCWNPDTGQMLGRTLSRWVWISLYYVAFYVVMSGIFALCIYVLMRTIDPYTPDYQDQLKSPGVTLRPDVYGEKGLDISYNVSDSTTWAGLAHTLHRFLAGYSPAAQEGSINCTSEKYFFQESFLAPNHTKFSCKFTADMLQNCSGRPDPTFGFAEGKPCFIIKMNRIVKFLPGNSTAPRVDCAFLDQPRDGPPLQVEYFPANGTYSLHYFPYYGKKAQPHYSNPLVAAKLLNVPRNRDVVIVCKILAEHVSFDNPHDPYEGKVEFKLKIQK
Protocol: The (H^+ +K^+)-ATPase inhibiting activity of the present compounds [I] was determined in the following manner: […] The (H^+ +K^+)-ATPase used in the above test was prepared from the fundus ventriculi of fresh hog stomachs in accordance with the method of Saccomani et al. [The Journal of Biological Chemistry, Vol. 251, No. 23, p. 7690 (1976)]. […] The colorimetric measurement was effected at a wavelength range of from 360 to 400 nm. As a control experiment, the residual activity of (H^+ +K^+)-ATPase was determined in the same manner as above without addition of any test compounds. […] To be more specific, the difference between the colorimetric reading obtained in the control experiment and the colorimetric reading obtained with a test compound is calculated at various molar concentrations, and the difference is divided by the reading of the control experiment to give a rate of inhibition. With inhibition rates thus obtained, a density-inhibition rate curve is plotted, and the IC50 value is determined based on the curve. In the table is also shown, for the purpose of comparison, the (H^+ +K^+)-ATPase inhibiting activity of omeprazole determined in the same manner as above.

[1] = Stability during storage (60° C., 75% R.H., 6 days), residual rate by thin layer densitometry; type: physicochemical; conditions: storage at 75% r.h.
Protocol: In the thin layer densitometry, spots each containing 100 μg of a test sample were applied onto thin layer plates. The spots were developed with a mixture of chloroform and ethanol (10:1, by volume). As the thin layer plates, TLC Plate Silica Gel 60 F254 (10×20 cm, 0.25 mm in thickness, a product of Merck & Co., Inc.) was used. The distance of development was 15 cm. The densitometry was effected by use of a Shimadzu Dichroic Chromatoscanner CS-910 (manufactured by Shimadzu Corporation) at a wavelength of 280 or 300 nm.

gastric acid secretion = assay: Gastric antisecretory effect (pylorus ligated rats); type: in vivo; conditions: Rattus norvegicus; po; male Wistar rats; pylorus ligated 1 hour after administration, total acid after 4 hours; read-out: Gastric Antisecretory Effect, ED50 (inhibition of total gastric acid by 50%)
Protocol: Exactly 1 hour after the completion of the administration, the pyloric regions of their stomachs were ligated. After 4 hours, the total acid contained in the gastric juice of each rat was determined. […] To collect the gastric juice, the rats were killed, and their stomachs were cut open. The total acid in the gastric juice was determined by titrating the juice with aqueous 0.1N sodium hydroxide solution until its pH reached 7.0. As a control experiment, the total acid contained in the gastric juice of rats not administered with the compounds was also determined in the same manner as above. […] In order to determine the ED50 value, the difference in total acid between a group of rats administered with a test compound and a group of rats not administered with any of the test compounds was calculated, and the difference was then divided by the total acid of the latter rats, so as to obtain a rate of inhibition. With inhibition rates thus obtained, a dosage-effect curve was plotted, and the ED50 value was determined on the basis of the curve. In the table is also shown, for the purpose of comparison, the ED50 value of omeprazole determined in the same manner as above.

[2] = stored without any special precautions; background statement; cited from earlier work
Acute toxicity (LD50) = conditions: rat, in vivo, 5 weeks old male Wistar rats
Protocol: Using 5 weeks old male Wistar rats, acute toxicity (LD50) of two representative compounds (compounds obtained in Examples 1 and 8) of the present compounds [I] was tested.

[3] = ip, administered intraperitoneally

IC50 ((H^+ +K^+)-ATPase) [µM]	remaining at 144 h [1] [%]	Structure (SMILES)	ED50 (gastric acid secretion) [mg/kg]	stability of omeprazole when stored (in words) [2]	LD50 (Acute toxicity (LD50); [3]) [mg/kg]	LD50 (Acute toxicity (LD50); po, administered orally) [mg/kg]
1900	67	COc1c(C)cnc(C[S+]([O-])c2nc3c(OCC4CC4)cccc3[nH]2)c1C (stereo not drawn) [Example 6, 2-[2-(4-methoxy-3,5-dimethyl)pyridylmethylsulfinyl]-4-cyclopropylmethyloxybenzimidazole]	–	–	–	–
1900	86	Cc1cnc(C[S+]([O-])c2nc3c(OCC4CC4)cccc3[nH]2)c(C)c1C (stereo not drawn) [Example 5, 2-[2-(3,4,5-trimethyl)pyridylmethylsulfinyl]-4-cyclopropylmethyloxybenzimidazole]	–	–	–	–
900	88	Cc1cnc(C[S+]([O-])c2nc3c(OCC4CC4)cccc3[nH]2)c(C)c1 (stereo not drawn) [Example 3, 2-[2-(3,5-dimethyl)pyridylmethylsulfinyl]-4-cyclopropylmethyloxybenzimidazole]	19.5	–	–	–
2100	59	Cc1ccnc(C[S+]([O-])c2nc3cc(OCC4CC4)ccc3[nH]2)c1 (stereo not drawn) [Example 2, 2-[2-(4-methyl)pyridylmethylsulfinyl]-5-cyclopropylmethyloxybenzimidazole]	–	–	–	–
430	76	COc1cc(C[S+]([O-])c2nc3c(OCC4CC4)cccc3[nH]2)ncc1C (stereo not drawn) [Example 9, 2-[2-(4-methoxy-5-methyl)pyridylmethylsulfinyl]-4-cyclopropylmethyloxybenzimidazole]	–	–	–	–
1000	94	Cc1cnc(C[S+]([O-])c2nc3cc(OCC4CC4)ccc3[nH]2)c(C)c1C (stereo not drawn) [Example 4, 2-[2-(3,4,5-trimethyl)pyridylmethylsulfinyl]-5-cyclopropylmethyloxybenzimidazole]	22.1	–	–	–

Second part, the molecule before the results:

Structure (SMILES)	IC50 ((H^+ +K^+)-ATPase) [µM]	remaining at 144 h [1] [%]	ED50 (gastric acid secretion) [mg/kg]	stability of omeprazole when stored (in words) [2]	LD50 (Acute toxicity (LD50); [3]) [mg/kg]	LD50 (Acute toxicity (LD50); po, administered orally) [mg/kg]
COc1c(C)cnc(C[S+]([O-])c2nc3cc(OCC4CC4)ccc3[nH]2)c1C (stereo not drawn) [Example 7, 2-[2-(4-methoxy-3,5-dimethyl)pyridylmethylsulfinyl]-5-cyclopropylmethyloxybenzimidazole]	1700	37	–	–	–	–
COc1ccc2[nH]c([S+]([O-])Cc3ncc(C)c(OC)c3C)nc2c1 (stereo not drawn) [Omeprazole, 5-methoxy-2-[2-(4-methoxy-3,5-dimethyl)-pyridylmethylsulfinyl]benzimidazole, reference compound]	1800	5	30.5	degraded at an unexpectedly high rate	–	–
Cc1cnc(C[S+]([O-])c2nc3cc(OCC4CC4)ccc3[nH]2)c(C)c1 (stereo not drawn) [Example 1, 2-[2-(3,5-dimethyl)pyridylmethylsulfinyl]-5-cyclopropylmethyloxybenzimidazole]	1800	91	17.8	–	≥ 500	≥ 4000
COc1cc(C[S+]([O-])c2nc3cc(OCC4CC4)ccc3[nH]2)ncc1C (stereo not drawn) [Example 8, 2-[2-(4-methoxy-5-methyl)pyridylmethylsulfinyl]-5-cyclopropylmethyloxybenzimidazole]	300	32	25.9	–	≥ 500	≥ 4000
